Measurements published in PubChem BioAssay (NCI).
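1) Cells in 96-well plates. 2) Compound, 48 h, 5 concentrations. 3) Linear interpolation between surrounding doses. 4) Unreached endpoint = highest concentration. The concentration for full growth arrest is given as TGI.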

Columns and labels:
Test in all cases: growth of human tumour cells (NCI), 48 h
T-47D breast = tested on: T-47D breast
SW-620 colon = tested on: SW-620 colon
UACC-62 melanoma = tested on: UACC-62 melanoma
PC-3 prostate = tested on: PC-3 prostate
HOP-92 NSCLC = tested on: HOP-92 NSCLC
CCRF-CEM leukemia = tested on: CCRF-CEM leukemia
SF-539 CNS = tested on: SF-539 CNS
IGROV1 ovarian = tested on: IGROV1 ovarian
NCI-H522 lung = tested on: NCI-H522 lung
M14 melanoma = tested on: M14 melanoma
SK-OV-3 ovarian = tested on: SK-OV-3 ovarian
K-562 leukemia = tested on: K-562 leukemia
UACC-257 melanoma = tested on: UACC-257 melanoma
CAKI-1 renal = tested on: CAKI-1 renal
BT-549 breast = tested on: BT-549 breast
MDA-MB-435 = tested on: MDA-MB-435
ACHN renal = tested on: ACHN renal
NCI/ADR-RES ovarian = tested on: NCI/ADR-RES ovarian
UO-31 renal = tested on: UO-31 renal
A549 NSCLC = tested on: A549 NSCLC
KM12 colon = tested on: KM12 colon
OVCAR-5 ovarian = tested on: OVCAR-5 ovarian
A498 renal = tested on: A498 renal
786-0 renal = tested on: 786-0 renal
NCI-H23 lung = tested on: NCI-H23 lung
MCF7 breast = tested on: MCF7 breast
HT29 colon = tested on: HT29 colon
DU-145 prostate = tested on: DU-145 prostate
HL-60(TB) leukemia = tested on: HL-60(TB) leukemia
EKVX NSCLC = tested on: EKVX NSCLC
TK-10 renal = tested on: TK-10 renal
NCI-H460 lung = tested on: NCI-H460 lung
OVCAR-4 ovarian = tested on: OVCAR-4 ovarian
SR leukemia = tested on: SR leukemia
MDA-N = tested on: MDA-N
NCI-H226 lung = tested on: NCI-H226 lung
LOX IMVI melanoma = tested on: LOX IMVI melanoma
SK-MEL-5 melanoma = tested on: SK-MEL-5 melanoma
MALME-3M melanoma = tested on: MALME-3M melanoma
HS 578T breast = tested on: HS 578T breast
SF-295 CNS = tested on: SF-295 CNS
U251 CNS = tested on: U251 CNS
SK-MEL-28 melanoma = tested on: SK-MEL-28 melanoma
HCT-15 colon = tested on: HCT-15 colon
OVCAR-8 ovarian = tested on: OVCAR-8 ovarian
SNB-19 CNS = tested on: SNB-19 CNS
MDA-MB-231 breast = tested on: MDA-MB-231 breast
SN12C renal = tested on: SN12C renal
HCC-2998 colon = tested on: HCC-2998 colon
COLO 205 colon = tested on: COLO 205 colon
SF-268 CNS = tested on: SF-268 CNS
HCT-116 colon = tested on: HCT-116 colon
SK-MEL-2 melanoma = tested on: SK-MEL-2 melanoma
RPMI-8226 leukemia = tested on: RPMI-8226 leukemia
MOLT-4 leukemia = tested on: MOLT-4 leukemia
OVCAR-3 ovarian = tested on: OVCAR-3 ovarian
RXF 393 renal = tested on: RXF 393 renal
HOP-62 NSCLC = tested on: HOP-62 NSCLC

Measured: TGI

CC1C2CCC3C(O)C2(CC(O)C2(O)C1CC(O)C2(C)C)CC3(C)O (stereo not given)
not listed: RPMI-8226 leukemia | MOLT-4 leukemia | OVCAR-3 ovarian | RXF 393 renal | HOP-62 NSCLC
> 100 µM: all other assays above

CCOC(=O)c1nc2ccccc2n(CC)c1=O
not listed: 786-0 renal
> 100 µM: all other assays above
